Data from US6673798B2, “PDGF receptor kinase inhibitory compounds, their preparation, purification and pharmaceutical compositions including same” (Yissum Research Development Company of the Hebrew …, priority 1999, dated 2004).

Assays:
neointimal formation = settings: controlled local delivery, rat carotid balloon injury model; cited from earlier work
porcine SMC = assay: Inhibition of SMC proliferation and recovery (cell count); assay type: cell-based; settings: 10 μM; for mean reduction in SMC count by day 3: compared to DMSO treated control cells; for reversibility of the inhibitory effect on SMC proliferation: cultures washed on day 7, recovery counted day 13
Experimental: Smooth muscle cells (SMC) were obtained under aseptic conditions from porcine abdominal aortas. Each artery was cut open and the endothelial surface mechanically scraped. The vessels were then cut into 2 mm^2 fragments which were placed in culture dishes with Dulbecco's modified Eagle's medium (DMEM) supplemented with 15% (v/v) fetal calf serum (FCS), 100 u/ml penicillin, 100 μg/ml streptomycin, and […]. The tissue fragments were then placed in an incubator at 37° C. under 9% CO2 atmosphere until SMC outgrowth was detected (typically within 3-7 days). […] For experiments testing the effect of tyrphostins on growth inhibition and recovery (see below), SMC from passages 1-3 were replated in 15 mm wells pretreated with 3 μg/cm^2 fibronectin (Biological Industries, Kibbutz Beit Haemek, Israel) at 15,000 cells/well.
Inhibition of cell proliferation and recovery: Monolayer cell growth inhibition and recovery experiments were repeated 3 or 4 times. Each experiment was performed in triplicate. Approximately 15,000 cells (SMC or PAEC) in 1 ml of culture medium supplemented with either 15% FCS (SMC) or 10% FCS (PAEC) were seeded on day 0 in 15 mm-wells precoated with fibronectin (SMC) or uncoated (PAEC). Cultures were treated with 10 μM of the following tyrphostin compounds: AG2033, AC2034, AG2043 and AG2044 (for SMC) or AG2033 (for PAEC) dissolved in 0.1% DMSO on days 1 and 3. On day 7, cultures were washed and the cells allowed to recover. Typically cells were counted on days 3 and 6 for inhibition, and on day 13 for recovery. The medium supplemented with serum (DMEM for SMC and Ham's F12 for PAEC) was changed every other day throughout the experiment.
Cells were grown in the presence of the specified tyrphostins and were counted on days 3, 6 and 13 in culture. On day 7 the cultures were washed and the cells allowed to recover. […] The inhibitory effect of all three compounds was reversible, and the cells resumed normal growth response as soon as the treatment with the tyrphostins was withdrawn.

[1] = target: epidermal growth factor receptor (Homo sapiens, UniProt P00533); settings: cited from earlier work
[2] = tested on: DNA synthesis stimulated by insulin, by epidermal growth factor, or by a combination of both; settings: cited from earlier work
[3] = tested on: fibroblast growth factor-dependent DNA synthesis; settings: relative to PDGF-dependent DNA synthesis; cited from earlier work
human PDGF α-receptor = human PDGF α-receptor (Homo sapiens, UniProt P16234); settings: cited from earlier work
PDGF β-receptor [4] = target: T1, PDGF β-receptor (Homo sapiens, UniProt P09619); settings: cited from earlier work
[5] = target: stem cell factor receptor (c-Kit) (Homo sapiens, UniProt P10721); settings: cited from earlier work
[6] = target: vascular endothelial growth factor receptor KDR (Homo sapiens, UniProt P35968); settings: cited from earlier work
[7] = tested on: porcine aortic endothelial cells; settings: cited from earlier work
[8] = tested on: sis-transfected NIH 3T3 cells; settings: cited from earlier work
[9] = tested on: src-transformed NIH 3T3 cells; settings: cited from earlier work
p60c-src(F527) = target: T2, p60c-src(F527) (Gallus gallus, UniProt P00523, Y527F); settings: immunoprecipitated from src-transformed NIH 3T3 cells; cited from earlier work
T2 construct: host or cells: src-transformed NIH 3T3 cells (immunoprecipitate)

PDGFβR = target: T3, PDGFβR (Mus musculus, UniProt P05622); assay: PDGF-induced PDGFβR autophosphorylation in intact Swiss 3T3 cells (FIG. 8); assay type: cell-based; settings: compared with AG2033 at 1 μM
T3 construct: A preparation of purified PDGFR from Swiss 3T3 cell membranes was used; endogenous in cells
Experimental: Kinase reactions, using an isolated PDGFβR preparation, in the presence of 0.03-3 μM tyrphostin, were conducted, utilizing [γ-^32P]ATP as probe. Densitometric evaluation, relative to control lacking the tyrphostin inhibitor (100%), results in the percent autokinase activity, presented in Table 8 and in the dose-response curves for the purified transoid isomers AG2033 (FIG. 6) and AG2043 (FIG. 7). Further comparison between the resulting autoradiogrms for each pair of geometrical isomers AG2033 and AG2034 (upper panel); AG2043 and AG2044 (lower panel), for their inhibitory activity towards PDGF-induced PDGFβR autophosphorylation (concentration range: 0.1-10 μM) in intact cells is presented in FIG. 8. […] Similar potency relation exists between the AG2043 and AG2044 isomers.

PDGF β-receptor [10] = target: T1, PDGF β-receptor; assay: PDGF-induced PDGFR autophosphorylation in intact PAEC cells; assay type: cell-based; design: expressed in transfected cells; host or cells: porcine aortic endothelial cells (PAEC), stably transfected; settings: intact PAEC cells expressing PDGFR, PDGF-BB stimulated; read-out: IC50 (50% inhibition of phosphorylation) PDGFR
Experimental: Effect of tyrphostins on PDGF-induced PDGFR autophosphorylation in intact PAEC cells: PAEC cells, transfected with either PDGFR or KDR, cultivated in Ham's F-12 medium supplemented with 10% fetal calf serum (FCS), were synchronized for 20 hours in a medium containing 0.01% BSA. […] After stimulation, the cells were solubilized in Nonidet P-40 (1%) containing lysis buffer.
The analysis of PDGF β-receptor phosphorylation was performed as follows. Cell lysates were subjected to immunoprecipitation using the PDGF β-receptor specific antiserum R3 [5]. The precipitates were subjected to polyacrylamide (7.5%) gel electrophoresis in presence of sodium dodecyl sulfate (SDS-PAGE) and were thereafter blotted onto a nitrocellulose membrane (Hybond C-EXTRA, Amersham). Phosphorylated proteins were detected by immunoblotting using the horseradish-peroxidase conjugated phosphotyrosine antibodies PY20 and 4G10 (Upstate Biotechnology), followed by application of secondary horseradish-peroxidase conjugated goat-anti-mouse antibody and chemoluminescence-based detection (ECL, Amersham) and autoradiography.
The data in Table 9 presents the differential potencies of the various compounds with respect to PDGFR and KDR, as was performed on intact PAEC cells expressing these receptors (see experimental methods section above).

T1 sequence (P09619 33-1106): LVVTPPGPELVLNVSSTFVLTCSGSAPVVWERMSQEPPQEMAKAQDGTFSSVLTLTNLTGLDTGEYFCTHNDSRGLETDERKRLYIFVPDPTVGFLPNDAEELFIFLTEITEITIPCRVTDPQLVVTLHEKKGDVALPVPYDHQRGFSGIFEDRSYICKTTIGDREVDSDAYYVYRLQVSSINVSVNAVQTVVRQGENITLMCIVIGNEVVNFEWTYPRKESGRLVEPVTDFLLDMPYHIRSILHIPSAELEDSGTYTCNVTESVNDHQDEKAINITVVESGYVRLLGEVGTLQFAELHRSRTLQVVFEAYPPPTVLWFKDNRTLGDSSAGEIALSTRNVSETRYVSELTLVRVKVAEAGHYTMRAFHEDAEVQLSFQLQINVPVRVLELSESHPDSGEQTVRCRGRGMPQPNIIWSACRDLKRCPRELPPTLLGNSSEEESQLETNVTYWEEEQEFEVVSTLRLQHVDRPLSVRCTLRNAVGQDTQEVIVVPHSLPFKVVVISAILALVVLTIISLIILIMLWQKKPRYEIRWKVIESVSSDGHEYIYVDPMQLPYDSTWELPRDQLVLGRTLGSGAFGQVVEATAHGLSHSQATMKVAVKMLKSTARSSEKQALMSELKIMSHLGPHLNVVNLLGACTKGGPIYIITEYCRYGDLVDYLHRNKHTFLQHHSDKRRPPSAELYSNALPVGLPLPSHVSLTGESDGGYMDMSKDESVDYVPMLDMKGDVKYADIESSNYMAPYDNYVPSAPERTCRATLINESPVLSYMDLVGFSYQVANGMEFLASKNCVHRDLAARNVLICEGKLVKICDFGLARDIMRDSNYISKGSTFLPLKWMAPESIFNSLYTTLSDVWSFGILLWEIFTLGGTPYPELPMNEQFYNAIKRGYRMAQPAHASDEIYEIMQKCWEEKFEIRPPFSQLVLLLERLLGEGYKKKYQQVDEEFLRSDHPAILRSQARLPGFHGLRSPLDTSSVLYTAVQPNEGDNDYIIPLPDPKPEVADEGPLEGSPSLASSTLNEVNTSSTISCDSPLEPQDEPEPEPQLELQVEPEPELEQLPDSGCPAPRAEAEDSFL
Sequence of epidermal growth factor receptor (P00533 25-1210, species assumed): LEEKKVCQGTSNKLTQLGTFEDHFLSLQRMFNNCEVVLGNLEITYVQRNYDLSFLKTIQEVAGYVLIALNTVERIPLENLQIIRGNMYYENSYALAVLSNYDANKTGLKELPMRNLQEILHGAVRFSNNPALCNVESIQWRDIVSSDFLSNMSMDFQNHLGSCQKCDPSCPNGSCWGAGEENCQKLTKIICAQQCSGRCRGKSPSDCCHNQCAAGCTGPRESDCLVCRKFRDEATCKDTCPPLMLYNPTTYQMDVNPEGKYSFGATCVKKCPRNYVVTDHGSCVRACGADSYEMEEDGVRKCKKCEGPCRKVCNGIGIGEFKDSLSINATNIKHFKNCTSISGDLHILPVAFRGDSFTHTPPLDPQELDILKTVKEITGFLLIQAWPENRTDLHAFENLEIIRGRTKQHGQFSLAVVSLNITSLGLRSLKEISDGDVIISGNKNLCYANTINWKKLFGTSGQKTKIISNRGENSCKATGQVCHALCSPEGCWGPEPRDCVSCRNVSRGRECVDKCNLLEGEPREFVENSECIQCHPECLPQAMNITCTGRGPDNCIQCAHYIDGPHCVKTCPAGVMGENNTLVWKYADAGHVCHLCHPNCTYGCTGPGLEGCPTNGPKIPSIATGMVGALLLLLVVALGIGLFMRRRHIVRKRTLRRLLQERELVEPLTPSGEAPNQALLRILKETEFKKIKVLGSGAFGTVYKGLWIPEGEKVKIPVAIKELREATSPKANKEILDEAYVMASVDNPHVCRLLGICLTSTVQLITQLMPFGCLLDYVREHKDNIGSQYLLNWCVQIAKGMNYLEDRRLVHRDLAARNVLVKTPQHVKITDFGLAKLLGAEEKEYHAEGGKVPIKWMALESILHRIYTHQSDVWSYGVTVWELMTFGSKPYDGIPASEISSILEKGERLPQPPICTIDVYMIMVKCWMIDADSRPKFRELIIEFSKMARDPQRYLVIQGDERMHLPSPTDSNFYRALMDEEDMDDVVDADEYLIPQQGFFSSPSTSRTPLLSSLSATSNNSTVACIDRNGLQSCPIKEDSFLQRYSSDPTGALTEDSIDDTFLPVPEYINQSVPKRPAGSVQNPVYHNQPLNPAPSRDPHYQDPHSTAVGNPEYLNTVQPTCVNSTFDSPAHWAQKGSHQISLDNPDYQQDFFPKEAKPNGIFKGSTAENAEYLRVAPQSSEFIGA
Sequence of human PDGF α-receptor (P16234 24-1089): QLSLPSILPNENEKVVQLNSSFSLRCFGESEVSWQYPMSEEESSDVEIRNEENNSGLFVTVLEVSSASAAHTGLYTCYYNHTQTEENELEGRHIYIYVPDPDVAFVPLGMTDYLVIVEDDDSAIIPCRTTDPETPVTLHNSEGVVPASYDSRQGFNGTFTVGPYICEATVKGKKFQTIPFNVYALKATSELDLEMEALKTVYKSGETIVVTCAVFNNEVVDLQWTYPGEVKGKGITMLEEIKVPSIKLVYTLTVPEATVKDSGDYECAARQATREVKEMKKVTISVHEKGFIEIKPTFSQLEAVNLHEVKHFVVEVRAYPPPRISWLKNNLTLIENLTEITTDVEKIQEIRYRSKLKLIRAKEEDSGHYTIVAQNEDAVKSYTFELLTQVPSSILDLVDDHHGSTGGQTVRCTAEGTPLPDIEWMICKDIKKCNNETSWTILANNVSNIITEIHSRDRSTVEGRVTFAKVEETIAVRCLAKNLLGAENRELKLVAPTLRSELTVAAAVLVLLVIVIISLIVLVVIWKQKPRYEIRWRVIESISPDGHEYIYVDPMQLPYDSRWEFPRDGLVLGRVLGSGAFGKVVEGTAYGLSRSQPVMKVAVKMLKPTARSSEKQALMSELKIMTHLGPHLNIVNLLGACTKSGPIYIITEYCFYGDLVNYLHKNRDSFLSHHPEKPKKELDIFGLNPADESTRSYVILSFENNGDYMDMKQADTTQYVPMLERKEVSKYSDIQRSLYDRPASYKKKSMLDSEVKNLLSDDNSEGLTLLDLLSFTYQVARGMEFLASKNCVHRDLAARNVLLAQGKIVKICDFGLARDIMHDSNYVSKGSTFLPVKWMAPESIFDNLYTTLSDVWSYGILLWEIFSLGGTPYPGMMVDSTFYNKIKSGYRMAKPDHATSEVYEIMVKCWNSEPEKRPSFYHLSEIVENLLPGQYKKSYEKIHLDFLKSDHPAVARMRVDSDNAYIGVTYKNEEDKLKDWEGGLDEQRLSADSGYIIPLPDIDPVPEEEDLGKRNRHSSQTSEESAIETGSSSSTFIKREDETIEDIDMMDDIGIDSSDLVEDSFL
Sequence of stem cell factor receptor (c-Kit) (P10721 26-976): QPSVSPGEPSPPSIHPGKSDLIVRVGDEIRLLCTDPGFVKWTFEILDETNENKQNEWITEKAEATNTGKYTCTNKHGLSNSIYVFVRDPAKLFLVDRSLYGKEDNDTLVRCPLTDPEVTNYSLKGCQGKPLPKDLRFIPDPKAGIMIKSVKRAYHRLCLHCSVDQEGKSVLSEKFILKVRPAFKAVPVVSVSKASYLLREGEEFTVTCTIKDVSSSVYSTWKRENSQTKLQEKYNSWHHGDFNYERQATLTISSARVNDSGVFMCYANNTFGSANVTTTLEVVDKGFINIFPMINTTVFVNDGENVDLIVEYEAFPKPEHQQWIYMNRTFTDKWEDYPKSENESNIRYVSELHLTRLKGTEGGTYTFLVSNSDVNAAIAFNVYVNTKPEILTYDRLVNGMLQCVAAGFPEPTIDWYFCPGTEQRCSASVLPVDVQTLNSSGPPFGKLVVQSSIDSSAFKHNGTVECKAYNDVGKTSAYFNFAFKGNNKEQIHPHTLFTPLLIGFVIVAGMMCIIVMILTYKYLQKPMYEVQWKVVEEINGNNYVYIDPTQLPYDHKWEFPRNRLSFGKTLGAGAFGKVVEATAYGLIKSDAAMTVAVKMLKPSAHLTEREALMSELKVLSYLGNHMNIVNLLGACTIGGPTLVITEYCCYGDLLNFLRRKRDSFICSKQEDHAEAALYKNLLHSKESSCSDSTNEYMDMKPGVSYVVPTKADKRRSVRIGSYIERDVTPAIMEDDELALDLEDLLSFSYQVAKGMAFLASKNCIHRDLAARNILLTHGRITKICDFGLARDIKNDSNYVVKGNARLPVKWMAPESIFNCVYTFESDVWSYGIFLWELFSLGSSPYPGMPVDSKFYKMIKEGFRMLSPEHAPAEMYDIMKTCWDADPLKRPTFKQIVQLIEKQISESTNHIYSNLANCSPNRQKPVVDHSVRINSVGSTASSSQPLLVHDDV

Row | melting point | IC50 (PDGF β-receptor [10]) | Compound | mean reduction in SMC count by day 3 (porcine SMC) | reversibility of the inhibitory effect on SMC proliferation (porcine SMC) | effect on epidermal growth factor receptor autophosphorylation [1] | effect on DNA synthesis stimulated by insulin, EGF or a combination of both [2] | blocking effect on fibroblast growth factor-dependent DNA synthesis [3] | further results
1 |  |  | CC(C)(C)c1cc(C=C(C#N)C#N)cc(C(C)(C)C)c1O [AG17] |  |  |  |  |  | inhibition of neointimal formation (neointimal formation): effectively inhibits
2 |  |  | Cc1cc2ncc(-c3ccccc3)nc2cc1C [AG1295] | 61% | completely reversible | no effect | weak effects | over an order of magnitude weaker blocking effect | 
3 |  |  | COc1cc2ncc(-c3ccccc3)nc2cc1OC [AG1296] |  |  | no effect | weak effects | over an order of magnitude weaker blocking effect | inhibition of signalling of human PDGF α-receptor (human PDGF α-receptor): potently inhibits; inhibition of signalling of human PDGF β-receptor (PDGF β-receptor [4]): potently inhibits; inhibition of signalling of stem cell factor receptor (c-Kit) [5]: potently inhibits; effect on autophosphorylation of KDR [6]: no effect; effect on DNA synthesis induced by VEGF [7]: no effect; effect on transformed phenotype of sis-transfected NIH 3T3 cells [8]: reverses the transformed phenotype; effect on src-transformed NIH 3T3 cells [9]: no effect; effect on activity of kinase p60c-src(F527) (p60c-src(F527)): no effect
4 | 218 °C | 10 µM | Cc1nc2cc3ncc(-c4ccccc4)nc3cc2n1C [AG2034, 1,2-dimethyl-7-phenyl imidazolo[5,4-g]quinoxaline] |  |  |  |  |  | concentration giving similar (marked) inhibition of PDGFβR autophosphorylation in intact cells (PDGFβR): 10 to 30 µM
5 | 218 °C | 5 µM | Cc1nc2cc3ncc(-c4cccs4)nc3cc2n1C [AG2044, 1,2-dimethyl-7-(2-thiophene) imidazolo[5,4-g]quinoxaline] | 84% | completely reversible |  |  |  | 
